The values that follow come from patent publication US8877759B2, “Aminopyrazines as ATR kinase inhibitors” (Vertex Pharnaceuticals Incorporated, priority 2011, dated 2014).

Structures are written as SMILES. Some results are limits rather than exact numbers.

The assay addresses T1, full-length ATR (Homo sapiens, UniProt Q13535).
T1 construct: Assays were carried out at 25° C. in the presence of 5 nM full-length ATR
Nature of the assay: ATR Inhibition Assay (radioactive-phosphate incorporation). In kind it is biochemical. Particulars: for ATR Ki: Ki(app), 5 nM full-length ATR, 10 μM [γ-33P]ATP, 800 μM target peptide, 25° C.

T1 sequence (Q13535 whole entry): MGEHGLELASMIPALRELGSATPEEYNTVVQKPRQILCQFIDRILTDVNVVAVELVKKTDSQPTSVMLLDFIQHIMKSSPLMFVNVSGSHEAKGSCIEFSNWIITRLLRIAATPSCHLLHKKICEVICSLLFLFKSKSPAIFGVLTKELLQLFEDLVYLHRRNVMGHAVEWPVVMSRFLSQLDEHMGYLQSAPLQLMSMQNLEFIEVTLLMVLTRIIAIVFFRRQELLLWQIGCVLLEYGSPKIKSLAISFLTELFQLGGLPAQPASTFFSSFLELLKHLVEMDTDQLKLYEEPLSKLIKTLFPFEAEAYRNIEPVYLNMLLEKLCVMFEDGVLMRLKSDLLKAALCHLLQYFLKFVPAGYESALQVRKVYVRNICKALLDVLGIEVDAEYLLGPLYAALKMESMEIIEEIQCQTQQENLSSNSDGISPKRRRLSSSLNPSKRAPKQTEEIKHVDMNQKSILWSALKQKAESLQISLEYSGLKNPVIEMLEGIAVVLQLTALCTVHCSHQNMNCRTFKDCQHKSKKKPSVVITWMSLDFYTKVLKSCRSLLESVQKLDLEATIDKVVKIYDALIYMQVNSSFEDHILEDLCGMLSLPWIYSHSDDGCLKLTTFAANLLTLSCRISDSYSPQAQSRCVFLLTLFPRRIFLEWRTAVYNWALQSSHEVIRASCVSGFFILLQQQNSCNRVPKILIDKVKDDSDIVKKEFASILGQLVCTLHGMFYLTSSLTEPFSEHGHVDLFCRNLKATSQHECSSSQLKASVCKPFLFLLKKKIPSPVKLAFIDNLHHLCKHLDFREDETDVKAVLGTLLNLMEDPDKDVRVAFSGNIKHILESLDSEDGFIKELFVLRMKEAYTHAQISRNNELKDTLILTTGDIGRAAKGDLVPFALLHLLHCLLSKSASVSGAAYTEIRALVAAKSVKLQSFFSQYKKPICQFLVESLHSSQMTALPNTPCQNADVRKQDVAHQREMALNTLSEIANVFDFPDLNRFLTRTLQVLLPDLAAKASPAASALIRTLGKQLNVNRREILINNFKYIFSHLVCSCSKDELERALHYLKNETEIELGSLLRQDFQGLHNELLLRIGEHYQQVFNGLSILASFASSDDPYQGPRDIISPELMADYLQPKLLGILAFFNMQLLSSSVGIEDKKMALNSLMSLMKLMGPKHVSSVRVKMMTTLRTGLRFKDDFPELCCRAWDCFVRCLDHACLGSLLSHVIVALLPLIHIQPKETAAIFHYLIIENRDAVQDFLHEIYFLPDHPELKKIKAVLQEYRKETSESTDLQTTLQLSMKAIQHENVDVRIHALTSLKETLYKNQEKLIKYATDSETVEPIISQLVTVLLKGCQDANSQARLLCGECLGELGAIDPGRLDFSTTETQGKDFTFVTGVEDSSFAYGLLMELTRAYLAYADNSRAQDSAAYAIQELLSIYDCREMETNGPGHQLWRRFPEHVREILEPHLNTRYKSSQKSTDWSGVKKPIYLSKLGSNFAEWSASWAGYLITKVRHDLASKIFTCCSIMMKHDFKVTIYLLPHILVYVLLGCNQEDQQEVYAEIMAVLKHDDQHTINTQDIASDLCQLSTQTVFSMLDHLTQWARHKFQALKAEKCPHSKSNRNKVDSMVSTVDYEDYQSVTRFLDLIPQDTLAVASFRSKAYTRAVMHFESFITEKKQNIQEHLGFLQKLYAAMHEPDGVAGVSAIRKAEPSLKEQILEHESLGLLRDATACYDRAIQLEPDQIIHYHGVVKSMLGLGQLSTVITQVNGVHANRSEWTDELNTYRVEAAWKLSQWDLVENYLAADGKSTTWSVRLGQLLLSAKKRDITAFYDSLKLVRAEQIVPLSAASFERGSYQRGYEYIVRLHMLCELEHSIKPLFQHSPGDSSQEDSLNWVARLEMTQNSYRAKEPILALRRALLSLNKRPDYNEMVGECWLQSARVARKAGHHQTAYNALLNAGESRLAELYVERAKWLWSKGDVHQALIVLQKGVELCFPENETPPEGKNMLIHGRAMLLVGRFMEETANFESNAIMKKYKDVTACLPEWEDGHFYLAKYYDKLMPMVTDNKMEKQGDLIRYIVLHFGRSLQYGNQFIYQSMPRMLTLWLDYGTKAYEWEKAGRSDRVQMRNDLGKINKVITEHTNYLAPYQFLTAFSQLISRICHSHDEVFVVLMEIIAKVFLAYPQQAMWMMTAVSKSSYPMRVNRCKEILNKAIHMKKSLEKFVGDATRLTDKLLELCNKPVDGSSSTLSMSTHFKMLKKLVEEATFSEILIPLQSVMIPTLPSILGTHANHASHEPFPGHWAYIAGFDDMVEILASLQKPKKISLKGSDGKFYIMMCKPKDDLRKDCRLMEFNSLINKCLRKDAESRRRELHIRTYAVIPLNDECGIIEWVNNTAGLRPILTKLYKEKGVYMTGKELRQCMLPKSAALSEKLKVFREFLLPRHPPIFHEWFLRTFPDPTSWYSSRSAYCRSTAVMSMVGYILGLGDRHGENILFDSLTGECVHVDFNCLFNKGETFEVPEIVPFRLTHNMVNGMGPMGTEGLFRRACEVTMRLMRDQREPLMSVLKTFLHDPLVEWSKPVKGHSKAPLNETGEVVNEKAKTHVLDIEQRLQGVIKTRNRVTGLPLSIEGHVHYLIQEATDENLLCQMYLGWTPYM

One may read the Ki as the dissociation constant of the complex between target and ligand, obtained from inhibition or displacement. Take `CC(C)(C#N)c1cc(-c2cnc(N)c(-c3nnc(-c4cccc(N5CC(N)C5)c4)o3)n2)ccn1` [Compound I-110]: the Ki is < 1 nM.
On the same count and under the same terms, with `CC(C)(C#N)c1cc(-c2cnc(N)c(-c3nnc(-c4cc5c(s4)CNCC5)o3)n2)ccn1` [Compound I-111] the figure was < 1 nM.
The same measure, in the same setting: as for `CC(C)(C#N)c1cc(-c2cnc(N)c(-c3nnc(-c4ccc(OCCN)cc4)o3)n2)ccn1` [Compound I-112], the figure is < 1 nM.
Consider `CC(C)(C#N)c1cc(-c2cnc(N)c(-c3nnc(-c4ccc(OC5CNC5)cc4)o3)n2)ccn1` [Compound I-113], for which the Ki is < 1 nM.
For the molecule `CN(C)CCNc1ccc(-c2nnc(-c3nc(-c4ccnc(C(C)(C)C#N)c4)cnc3N)o2)cc1` [Compound I-114], the “ATR Ki” value is reported as “+++ (Compounds with a Ki value >5 nM but ≦1 nM are marked with “+++.”)”.
With `CCOC(=O)C(C)(C)c1cc(-c2cnc(N)c(-c3cc(-c4ccccc4)no3)n2)ccn1` [Compound I-115], the “ATR Ki” value is on record as “+++ (Compounds with a Ki value >5 nM but ≦1 nM are marked with “+++.”)”.
As to `CC(C)(C#N)c1cc(-c2cnc(N)c(-c3nnc(-c4ccc(NCCN5CCOCC5)cc4)o3)n2)ccn1` [Compound I-116], the Ki was < 1 nM.
Still for that read-out and setting: with `CNCCNc1ccc(-c2nnc(-c3nc(-c4ccnc(C(C)(C)C#N)c4)cnc3N)o2)cc1` [Compound I-117] the figure was < 1 nM.
For the molecule `CC(C)(C#N)c1cc(-c2cnc(N)c(-c3nnc(-c4ccc(N5CCC5)cc4)o3)n2)ccn1` [Compound I-118], the “ATR Ki” value is recorded as “+++ (Compounds with a Ki value >5 nM but ≦1 nM are marked with “+++.”)”.
As for `CN1CC(Oc2ccc(-c3nnc(-c4nc(-c5ccnc(C(C)(C)C#N)c5)cnc4N)o3)cc2)C1` [Compound I-121], the Ki was < 1 nM.
Take `CC(C)(C#N)c1cc(-c2cnc(N)c(-c3nnc(-c4ccc(CNC5CCCOC5)cc4)o3)n2)ccn1` (stereo not drawn) [Compound I-122]: the Ki was < 1 nM.
As to `CC(C)(C#N)c1cc(-c2cnc(N)c(-c3nnc(-c4ccc(N5CC(N)C5)cc4)o3)n2)ccn1` [Compound I-123], the Ki is < 1 nM.
Same read-out and setting: as for `CC(C)(C#N)c1cc(-c2cnc(N)c(-c3nnc(-c4ccc(CNC5CCOCC5)cc4F)o3)n2)ccn1` [Compound I-124], the figure is < 1 nM; as for `CC(C)(C#N)c1cc(-c2cnc(N)c(-c3nnc(-c4cccc(N5CCC(N)CC5)c4)o3)n2)ccn1` [Compound I-125], 5 to 20 nM; as for `CC(C)(C#N)c1cc(-c2cnc(N)c(-c3nnc(-c4ccc(CNC5CCOCC5)cc4)o3)n2)ccn1` [Compound I-126], < 1 nM.
As to `CC(C)(C#N)c1cc(-c2cnc(N)c(-c3nnc(-c4ccc(C5=CCNCC5)cc4)o3)n2)ccn1` [Compound I-128], the Ki is < 1 nM.
Consider `CC(C)(C#N)c1cc(-c2cnc(N)c(-c3nnc(-c4ccc(C5=NCCN5)cc4)o3)n2)ccn1` [Compound I-129], for which the “ATR Ki” value is given as “+++ (Compounds with a Ki value >5 nM but ≦1 nM are marked with “+++.”)”.
Consider `CC(N)CNc1ccc(-c2nnc(-c3nc(-c4ccnc(C(C)(C)C#N)c4)cnc3N)o2)cc1` (stereo not drawn) [Compound I-130], for which the Ki was < 1 nM.
Still for that read-out and setting: as for `CN(C)C1CN(c2ccc(-c3nnc(-c4nc(-c5ccnc(C(C)(C)C#N)c5)cnc4N)o3)cc2)C1` [Compound I-131], the figure is < 1 nM.
As to `CCCN(CCOC)C(=O)c1cc(-c2cnc(N)c(-c3cc(-c4ccccc4)no3)n2)ccn1` [Compound I-132], the “ATR Ki” value was “+++ (Compounds with a Ki value >5 nM but ≦1 nM are marked with “+++.”)”.
As for `COc1ccccc1-c1nnc(-c2nc(-c3ccnc(C4(C#N)CCNCC4)c3)cnc2N)o1` [Compound I-133], the Ki is < 1 nM.
Turning to `CC(C)(C#N)c1cc(-c2cnc(N)c(-c3nnc(-c4ccc(F)cc4F)o3)n2)ccn1` [Compound I-134], the “ATR Ki” value was “+++ (Compounds with a Ki value >5 nM but ≦1 nM are marked with “+++.”)”.
For `Nc1ncc(-c2ccnc(CO)c2)nc1-c1cc(-c2ccc(CNC3CCOCC3)cc2)no1` [Compound I-135], the Ki was < 1 nM.
In the case of `N#CCc1cc(-c2cnc(N)c(-c3cc(-c4ccc(CNC5CCOCC5)cc4)no3)n2)ccn1` [Compound I-136], the inhibition constant Ki is < 1 nM.
Same read-out and setting: as for `N#CCc1cc(-c2cnc(N)c(-c3nnc(-c4ccc(CNC5CCOCC5)cc4)o3)n2)ccn1` [Compound I-137], the figure is < 1 nM.
Take `CC(C)(C#N)c1nccc(-c2cnc(N)c(-c3cc(-c4ccc(CNC5CCOCC5)cc4)no3)n2)c1F` [Compound I-138]: the “ATR Ki” value is listed as “+++ (Compounds with a Ki value >5 nM but ≦1 nM are marked with “+++.”)”.
On to `CC(C)(C#N)c1nccc(-c2cnc(N)c(-c3cc(-c4ccc(CNCC5COC5)cc4)no3)n2)c1F` [Compound I-139], for which the Ki was 5 to 20 nM.
